Reference: PubChem BioAssay AID248 (DTP/NCI, 2004)
“And” between values parts separate entries of the source, which are not always exact repeats. Identical values can stand only once. Toxic doses and inconclusive results are not listed. Cut-off read from the data, not from the text of the source: active = T/C of 150% or more; inactive = T/C below 125%. Peptide text beside a SMILES is read from it. * marks the point of attachment. Cbz = O=C(OCc1ccccc1)*

System: L1210 leukemia ip in BDF1 mice, survival T/C
Test: NCI In Vivo Anticancer Drug Screen. Data for tumor model L1210 Leukemia (intraperitoneal) in B6D2F1 (BDF1) mice
Details: endpoint: mean survival time, higher = longer survival
How it was run: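 Each compound was tested against a transplantable tumor grown in mice. The endpoint was survival, with treated animals benchmarked against vehicle controls as a simple ratio.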

[1] = dose: 100.0 mg/kg/injection, schedule: Q01DX009 (ip), vehicle: saline with Tween-80
[2] = dose: 100.0 mg/kg/injection, schedule: Q04DX003 (ip), vehicle: saline with Tween-80
[3] = dose: 200.0 mg/kg/injection, schedule: Q04DX003 (ip), vehicle: saline with Tween-80
[4] = dose: 400.0 mg/kg/injection, schedule: Q04DX003 (ip), vehicle: saline with Tween-80
[5] = dose: 100.0 mg/kg/injection, schedule: Q04DX003 (ip), vehicle: saline
[6] = dose: 200.0 mg/kg/injection, schedule: Q04DX003 (ip), vehicle: saline
[7] = dose: 400.0 mg/kg/injection, schedule: Q04DX003 (ip), vehicle: saline
[8] = dose: 100.0 mg/kg/injection, schedule: Q01DX009 (ip), vehicle: Klucel (hydroxypropylcellulose) (HPC)
[9] = dose: 200.0 mg/kg/injection, schedule: Q01DX009 (ip), vehicle: Klucel (hydroxypropylcellulose) (HPC)
[10] = dose: 400.0 mg/kg/injection, schedule: Q01DX009 (ip), vehicle: Klucel (hydroxypropylcellulose) (HPC)
[11] = dose: 100.0 mg/kg/injection, schedule: Q04DX003 (ip), vehicle: Klucel (hydroxypropylcellulose) (HPC)
[12] = dose: 200.0 mg/kg/injection, schedule: Q04DX003 (ip), vehicle: Klucel (hydroxypropylcellulose) (HPC)
[13] = dose: 400.0 mg/kg/injection, schedule: Q04DX003 (ip), vehicle: Klucel (hydroxypropylcellulose) (HPC)
[14] = dose: 100.0 mg/kg/injection, schedule: Q01DX009 (ip), vehicle: saline
[15] = dose: 200.0 mg/kg/injection, schedule: Q01DX009 (ip), vehicle: saline
[16] = dose: 400.0 mg/kg/injection, schedule: Q01DX009 (ip), vehicle: saline
[17] = dose: 100.0 mg/kg/injection, schedule: Q01DX001 (ip), vehicle: saline
[18] = dose: 200.0 mg/kg/injection, schedule: Q01DX001 (ip), vehicle: saline
[19] = dose: 400.0 mg/kg/injection, schedule: Q01DX001 (ip), vehicle: saline
[20] = dose: 25.0 mg/kg/injection, schedule: Q01DX009 (ip), vehicle: saline
[21] = dose: 50.0 mg/kg/injection, schedule: Q01DX009 (ip), vehicle: saline

Measured: T/C

CN(CCO)/N=N/c1nc[nH]c1C#N
inactive: dose: 100.0 mg/kg/injection, schedule: Q01DX001 (ip), vehicle: other 98 % of control | [1] 103 % of control | [2] 102 % of control | dose: 200.0 mg/kg/injection, schedule: Q01DX001 (ip), vehicle: other 100 % of control | dose: 200.0 mg/kg/injection, schedule: Q01DX009 (ip), vehicle: saline with Tween-80 103 % of control | [3] 107 % of control | dose: 400.0 mg/kg/injection, schedule: Q01DX001 (ip), vehicle: other 94 % of control | dose: 400.0 mg/kg/injection, schedule: Q01DX009 (ip), vehicle: saline with Tween-80 113 % of control | [4] 102 % of control

N#CC1(OC2OC(CO)C(O)C(O)C2O)C=CC(O)C1O (stereo not drawn)
inactive: [5] 98 % of control | [6] 105 % of control | [7] 96 % of control

CCc1ccccc1NC(=O)Nc1ccc(CCO)cc1
inactive: [8] 98 % of control | [9] 105 % of control | [10] 96 % of control

CC(=O)NN(c1ccccc1)c1ccccc1
inactive: dose: 50.0 mg/kg/injection, schedule: Q01DX009 (ip), vehicle: Klucel (hydroxypropylcellulose) (HPC) 98 % of control | [8] 104 % of control | [11] 93 % of control | [9] 96 % of control | [12] 86 % of control | [13] 91 % of control

CC1(C)C2CCC1(C)C(N=C(N)CSS(=O)(=O)O)C2 (stereo not drawn)
inactive: dose: 12.5 mg/kg/injection, schedule: Q04DX002 (ip), vehicle: Klucel (hydroxypropylcellulose) (HPC) 112 % of control | dose: 25.0 mg/kg/injection, schedule: Q01DX001 (ip), vehicle: Klucel (hydroxypropylcellulose) (HPC) 101 % of control | dose: 25.0 mg/kg/injection, schedule: Q04DX002 (ip), vehicle: Klucel (hydroxypropylcellulose) (HPC) 98 % of control | dose: 50.0 mg/kg/injection, schedule: Q01DX001 (ip), vehicle: Klucel (hydroxypropylcellulose) (HPC) 98 % of control | dose: 100.0 mg/kg/injection, schedule: Q01DX001 (ip), vehicle: Klucel (hydroxypropylcellulose) (HPC) 87 % of control

Cc1c2ccc3ccccc3c2c[n+]2ccccc12
inactive: dose: 5.0 mg/kg/injection, schedule: Q01DX009 (ip), vehicle: saline sonified 102 % of control | dose: 7.0 mg/kg/injection, schedule: Q01DX009 (ip), vehicle: saline sonified 116 % of control and 120 % of control | dose: 10.7 mg/kg/injection, schedule: Q01DX009 (ip), vehicle: saline sonified 117 % of control | dose: 11.0 mg/kg/injection, schedule: Q01DX009 (ip), vehicle: saline sonified 120 % of control | dose: 15.0 mg/kg/injection, schedule: Q04DX003 (ip), vehicle: Klucel (hydroxypropylcellulose) (HPC) 108 % of control | dose: 21.0 mg/kg/injection, schedule: Q04DX003 (ip), vehicle: Klucel (hydroxypropylcellulose) (HPC) 107 % of control | dose: 24.0 mg/kg/injection, schedule: Q01DX009 (ip), vehicle: saline sonified 114 % of control | dose: 33.0 mg/kg/injection, schedule: Q04DX003 (ip), vehicle: Klucel (hydroxypropylcellulose) (HPC) 105 % of control | dose: 48.0 mg/kg/injection, schedule: Q04DX003 (ip), vehicle: Klucel (hydroxypropylcellulose) (HPC) 111 % of control

COc1ccc(COC(=O)Nc2cc(OC)ccc2OC)cc1
inactive: dose: 100.0 mg/kg/injection, schedule: Q04DX002 (ip), vehicle: Klucel (hydroxypropylcellulose) (HPC) 101 % of control | dose: 200.0 mg/kg/injection, schedule: Q04DX002 (ip), vehicle: Klucel (hydroxypropylcellulose) (HPC) 101 % of control | dose: 400.0 mg/kg/injection, schedule: Q04DX002 (ip), vehicle: Klucel (hydroxypropylcellulose) (HPC) 107 % of control

CC12CCC(=O)OC1(C)OC(=O)CC2 (stereo not drawn)
inactive: [14] 94 % of control | [15] 100 % of control | [16] 95 % of control

C/C(=N/Nc1ccc2c(O)cc(S(=O)(=O)O)cc2c1)c1ccc(Cl)cc1
inactive: dose: 75.0 mg/kg/injection, schedule: Q01DX009 (ip), vehicle: saline 101 % of control | dose: 150.0 mg/kg/injection, schedule: Q01DX009 (ip), vehicle: saline 98 % of control | dose: 300.0 mg/kg/injection, schedule: Q01DX009 (ip), vehicle: saline 96 % of control

CCCCOC(=O)c1ccc(NC(=O)Nc2cccc(F)c2)cc1
inactive: [1] 95 % of control

OCCOc1cccc(OCCO)c1
inactive: [2] 103 % of control | [3] 104 % of control | [4] 92 % of control

CCOC(=O)CCCC1(C)C(C#N)C(=O)NC(=O)C1C#N (stereo not drawn)
inactive: [14] 96 % of control | [5] 112 % of control | [15] 98 % of control | [6] 102 % of control | [16] 90 % of control | [7] 94 % of control

COC(=O)C(CC(C)C)NC(=O)C(CC(N)=O)NC(=O)OCc1ccccc1 (stereo not drawn) (Cbz-Asn-Leu-OMe; configuration not given here)
inactive: [17] 96 % of control | [18] 93 % of control | [19] 98 % of control

CCOC(=O)C(NC(=O)C(Cc1ccc(N(CCCl)CCCl)cc1)NC(C)=O)C(C)C (stereo not drawn)
inactive: dose: 7.5 mg/kg/injection, schedule: Q01DX009 (ip), vehicle: alcohol 96 % of control | dose: 15.0 mg/kg/injection, schedule: Q01DX009 (ip), vehicle: alcohol 120 % of control | dose: 24.0 mg/kg/injection, schedule: Q01DX009 (ip), vehicle: carboxymethylcellulose (CMC) 96 % of control | [20] 98 % of control | dose: 30.0 mg/kg/injection, schedule: Q04DX003 (ip), vehicle: alcohol 110 % of control | dose: 36.0 mg/kg/injection, schedule: Q01DX009 (ip), vehicle: carboxymethylcellulose (CMC) 98 % of control | dose: 50.0 mg/kg/injection, schedule: Q01DX001 (ip), vehicle: saline 111 % of control | dose: 50.0 mg/kg/injection, schedule: Q01DX009 (ip), vehicle: carboxymethylcellulose (CMC) 104 % of control | [21] 101 % of control | dose: 50.0 mg/kg/injection, schedule: Q04DX003 (ip), vehicle: alcohol 110 % of control | dose: 75.0 mg/kg/injection, schedule: Q01DX009 (ip), vehicle: carboxymethylcellulose (CMC) 102 % of control | dose: 75.0 mg/kg/injection, schedule: Q04DX003 (ip), vehicle: alcohol 121 % of control | [17] 105 % of control | [14] 109 % of control | dose: 112.0 mg/kg/injection, schedule: Q01DX009 (ip), vehicle: alcohol 103 % of control and 108 % of control | dose: 112.0 mg/kg/injection, schedule: Q01DX009 (ip), vehicle: carboxymethylcellulose (CMC) 96 % of control | dose: 112.0 mg/kg/injection, schedule: Q04DX003 (ip), vehicle: alcohol 118 % of control | dose: 178.0 mg/kg/injection, schedule: Q01DX009 (ip), vehicle: carboxymethylcellulose (CMC) 107 % of control | dose: 178.0 mg/kg/injection, schedule: Q01DX015 (ip), vehicle: saline 103 % of control | [18] 105 % of control | dose: 267.0 mg/kg/injection, schedule: Q01DX009 (ip), vehicle: carboxymethylcellulose (CMC) 96 % of control | dose: 267.0 mg/kg/injection, schedule: Q01DX015 (ip), vehicle: saline 108 % of control | [19] 115 % of control | dose: 400.0 mg/kg/injection, schedule: Q01DX009 (ip), vehicle: carboxymethylcellulose (CMC) 98 % of control | dose: 400.0 mg/kg/injection, schedule: Q01DX015 (ip), vehicle: saline 106 % of control | dose: 600.0 mg/kg/injection, schedule: Q01DX009 (ip), vehicle: carboxymethylcellulose (CMC) 96 % of control | dose: 600.0 mg/kg/injection, schedule: Q01DX015 (ip), vehicle: saline 94 % of control

CC1(O)Cn2c(nc3nccnc32)S1 (stereo not drawn)
inactive: [20] 100 % of control | [21] 96 % of control | [14] 94 % of control | [5] 100 % of control | [6] 96 % of control

COC(=O)C(N)CO (stereo not drawn)
inactive: [2] 105 % of control | [3] 105 % of control | [4] 91 % of control

Oc1cc(Br)ccc1C=Nc1ccc(N2CCCCC2)cc1
inactive: [8] 92 % of control | [11] 100 % of control | [9] 94 % of control | [12] 101 % of control | [10] 89 % of control | [13] 103 % of control
